Assay results published in ChEMBL document CHEMBL1909046, “DrugMatrix in vitro pharmacology data”.
Where a SMILES comes first, the peptide text is derived from it. Bridges are numbered along the chain shown (N, C = ends). [ ]: non-standard residue; d: D form. The star is where a group is joined. Ileψ(thiazoline)Cys = CC[C@H](C)[C@H](N)C1=N[C@H](C(=O)*)CS1; dOrn = NCCC[C@@H](N)C(=O)O

Assays:
[1] = DRUGMATRIX: Glutamate, NMDA, Phencyclidine radioligand binding (ligand: [3H] TCP); assay type: cell membranes, Rattus norvegicus, Wistar, Cerebral cortex, Membrane; details: Not Active = under 50% inhibition at 10 µM
[2] = target: Mitogen-activated protein kinase 3 (Homo sapiens, UniProt P27361); test: DRUGMATRIX: Protein Serine/Threonine Kinase, ERK1 enzyme inhibition (substrate: Myelin Basic Protein); set-up: species or system Escherichia coli; details: Not Active = under 50% inhibition at 10 µM
Sequence of Mitogen-activated protein kinase 3 (P27361 whole entry): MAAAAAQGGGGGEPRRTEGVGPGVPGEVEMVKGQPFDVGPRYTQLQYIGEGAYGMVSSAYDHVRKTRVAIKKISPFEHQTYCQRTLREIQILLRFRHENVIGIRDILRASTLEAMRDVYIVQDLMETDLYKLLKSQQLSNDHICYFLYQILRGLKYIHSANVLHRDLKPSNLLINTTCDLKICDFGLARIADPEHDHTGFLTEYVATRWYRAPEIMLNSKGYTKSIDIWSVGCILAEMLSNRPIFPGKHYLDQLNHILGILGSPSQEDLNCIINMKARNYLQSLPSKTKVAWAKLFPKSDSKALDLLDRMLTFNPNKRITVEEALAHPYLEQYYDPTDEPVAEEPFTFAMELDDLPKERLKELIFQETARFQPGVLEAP

[3] = target: Mitogen-activated protein kinase 1 (Homo sapiens, UniProt P28482); test: DRUGMATRIX: Protein Serine/Threonine Kinase, ERK2 enzyme inhibition (substrate: Myelin Basic Protein); set-up: species or system Escherichia coli; details: Not Active = under 50% inhibition at 10 µM
Sequence of Mitogen-activated protein kinase 1 (P28482 whole entry): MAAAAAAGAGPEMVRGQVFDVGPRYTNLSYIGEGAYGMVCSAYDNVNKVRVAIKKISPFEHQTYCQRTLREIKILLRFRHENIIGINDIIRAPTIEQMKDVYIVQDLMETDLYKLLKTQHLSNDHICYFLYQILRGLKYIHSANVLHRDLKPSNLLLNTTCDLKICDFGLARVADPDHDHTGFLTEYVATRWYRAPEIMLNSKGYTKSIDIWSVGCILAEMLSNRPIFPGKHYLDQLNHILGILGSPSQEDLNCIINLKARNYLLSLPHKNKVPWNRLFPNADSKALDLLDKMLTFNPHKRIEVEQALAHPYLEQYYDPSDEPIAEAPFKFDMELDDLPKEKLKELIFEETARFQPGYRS

[4] = target: T1, Type-2 angiotensin II receptor (Homo sapiens, UniProt P50052); assay type: cell-based; details: cho-k1; further: in other assays of this panel Not Active means under 50% inhibition at 10 µM
T1 sequence (P50052 whole entry): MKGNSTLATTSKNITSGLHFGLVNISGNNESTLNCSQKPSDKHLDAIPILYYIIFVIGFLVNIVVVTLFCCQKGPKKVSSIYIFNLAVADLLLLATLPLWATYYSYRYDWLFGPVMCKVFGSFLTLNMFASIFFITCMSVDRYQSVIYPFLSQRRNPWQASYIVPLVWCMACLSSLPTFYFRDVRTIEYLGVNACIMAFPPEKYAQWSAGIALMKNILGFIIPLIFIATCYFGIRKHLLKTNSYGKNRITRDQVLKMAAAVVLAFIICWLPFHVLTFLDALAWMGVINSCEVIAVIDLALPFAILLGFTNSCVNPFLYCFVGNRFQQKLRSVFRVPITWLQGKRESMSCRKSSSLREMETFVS

Acetylcholinesterase = Acetylcholinesterase (Homo sapiens, UniProt P22303); test: DRUGMATRIX: Acetylcholinesterase enzyme inhibition (substrate: acetylthiocholine); assay type: cell-based, HEK293; details: hek293; Not Active = under 50% inhibition at 10 µM
Sequence of Acetylcholinesterase (P22303 whole entry): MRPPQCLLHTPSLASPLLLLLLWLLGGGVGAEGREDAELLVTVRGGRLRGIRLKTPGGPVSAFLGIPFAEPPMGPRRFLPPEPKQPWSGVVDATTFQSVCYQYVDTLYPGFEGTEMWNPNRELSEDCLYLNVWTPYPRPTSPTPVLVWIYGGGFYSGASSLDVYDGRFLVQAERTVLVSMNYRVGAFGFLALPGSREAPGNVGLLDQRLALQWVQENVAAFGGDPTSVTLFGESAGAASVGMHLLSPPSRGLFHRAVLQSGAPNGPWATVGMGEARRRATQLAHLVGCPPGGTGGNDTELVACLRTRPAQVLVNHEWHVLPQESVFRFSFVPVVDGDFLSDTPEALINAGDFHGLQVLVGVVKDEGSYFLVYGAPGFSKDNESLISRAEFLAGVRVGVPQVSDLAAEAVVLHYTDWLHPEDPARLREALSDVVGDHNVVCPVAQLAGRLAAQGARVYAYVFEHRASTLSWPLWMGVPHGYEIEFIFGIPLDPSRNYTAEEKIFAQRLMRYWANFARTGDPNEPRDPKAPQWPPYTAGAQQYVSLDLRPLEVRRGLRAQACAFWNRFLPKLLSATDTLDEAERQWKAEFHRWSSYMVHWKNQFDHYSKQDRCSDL

Substance-K receptor = target: T2, Substance-K receptor (Homo sapiens, UniProt P21452); assay type: cell membranes, CHO, Membrane; further: in other assays of this panel Not Active means under 50% inhibition at 10 µM
T2 sequence (P21452 whole entry): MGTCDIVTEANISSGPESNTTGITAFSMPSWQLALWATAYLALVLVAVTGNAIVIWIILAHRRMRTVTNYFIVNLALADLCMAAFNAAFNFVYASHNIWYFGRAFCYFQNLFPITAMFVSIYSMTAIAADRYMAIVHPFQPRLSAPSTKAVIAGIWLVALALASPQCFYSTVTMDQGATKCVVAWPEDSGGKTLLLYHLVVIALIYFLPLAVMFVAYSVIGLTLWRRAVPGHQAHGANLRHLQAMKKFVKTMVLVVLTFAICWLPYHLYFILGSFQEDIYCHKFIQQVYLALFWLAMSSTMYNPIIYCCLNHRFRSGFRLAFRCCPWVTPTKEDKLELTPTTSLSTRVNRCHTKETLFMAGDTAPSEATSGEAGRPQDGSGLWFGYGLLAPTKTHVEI

[5] = DRUGMATRIX: Platelet-Derived Growth Factor (PDGF) radioligand binding (ligand: [125I] PDGF); assay type: cell-based; details: nih3t3; Not Active = under 50% inhibition at 10 µM
Cytochrome P450 3A4 = Cytochrome P450 3A4 (Homo sapiens, UniProt P08684); details: bti-tn-5b1-4; further: in other assays of this panel Not Active means under 50% inhibition at 10 µM
Sequence of Cytochrome P450 3A4 (P08684 whole entry): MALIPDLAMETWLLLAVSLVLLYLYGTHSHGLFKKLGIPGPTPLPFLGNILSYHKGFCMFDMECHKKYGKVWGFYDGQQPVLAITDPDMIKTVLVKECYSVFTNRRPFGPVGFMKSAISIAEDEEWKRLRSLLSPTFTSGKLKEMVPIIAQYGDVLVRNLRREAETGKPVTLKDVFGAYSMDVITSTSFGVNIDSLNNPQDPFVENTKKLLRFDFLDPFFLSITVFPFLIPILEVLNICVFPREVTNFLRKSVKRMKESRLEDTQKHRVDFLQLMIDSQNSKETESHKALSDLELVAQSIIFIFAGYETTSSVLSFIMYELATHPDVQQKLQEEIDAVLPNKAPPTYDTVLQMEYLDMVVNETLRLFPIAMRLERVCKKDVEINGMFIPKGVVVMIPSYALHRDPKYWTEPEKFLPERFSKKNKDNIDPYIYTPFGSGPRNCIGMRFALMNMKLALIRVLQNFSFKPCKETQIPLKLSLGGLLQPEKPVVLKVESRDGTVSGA

[6] = target: T3, C-C chemokine receptor type 4 (Homo sapiens, UniProt P51679); assay type: cell membranes, Membrane; details: chem-1; further: in other assays of this panel Not Active means under 50% inhibition at 10 µM
T3 sequence (P51679 whole entry): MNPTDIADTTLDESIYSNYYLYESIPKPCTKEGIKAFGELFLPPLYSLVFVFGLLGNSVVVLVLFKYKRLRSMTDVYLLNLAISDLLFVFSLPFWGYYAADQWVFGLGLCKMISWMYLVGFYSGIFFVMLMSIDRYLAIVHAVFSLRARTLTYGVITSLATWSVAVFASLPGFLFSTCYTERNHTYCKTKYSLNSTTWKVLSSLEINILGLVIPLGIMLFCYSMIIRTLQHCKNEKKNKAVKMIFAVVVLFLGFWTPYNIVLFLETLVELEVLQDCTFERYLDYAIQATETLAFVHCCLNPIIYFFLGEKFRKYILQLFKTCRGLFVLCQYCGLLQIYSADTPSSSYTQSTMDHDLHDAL

[7] = target: T4, Neuropeptide Y receptor type 1 (Homo sapiens, UniProt P25929); assay type: cell membranes, Membrane; details: sk-n-mc; further: in other assays of this panel Not Active means under 50% inhibition at 10 µM
T4 sequence (P25929 whole entry): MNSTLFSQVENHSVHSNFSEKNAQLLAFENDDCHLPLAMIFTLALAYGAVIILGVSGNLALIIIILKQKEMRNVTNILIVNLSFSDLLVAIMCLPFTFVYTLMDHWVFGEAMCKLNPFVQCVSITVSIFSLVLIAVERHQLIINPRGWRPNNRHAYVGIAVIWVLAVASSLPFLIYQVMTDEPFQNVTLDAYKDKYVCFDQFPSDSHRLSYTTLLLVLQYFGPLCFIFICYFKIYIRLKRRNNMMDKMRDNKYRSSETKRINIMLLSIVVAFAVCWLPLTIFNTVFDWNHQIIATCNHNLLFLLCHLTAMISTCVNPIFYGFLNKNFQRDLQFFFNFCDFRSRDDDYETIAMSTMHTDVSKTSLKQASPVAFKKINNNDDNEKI

[8] = target: Tyrosine-protein kinase Fyn (Homo sapiens, UniProt P06241); test: biochemical; assay type: cell-based, Insect cells; details: insect cells
Sequence of Tyrosine-protein kinase Fyn (P06241 whole entry): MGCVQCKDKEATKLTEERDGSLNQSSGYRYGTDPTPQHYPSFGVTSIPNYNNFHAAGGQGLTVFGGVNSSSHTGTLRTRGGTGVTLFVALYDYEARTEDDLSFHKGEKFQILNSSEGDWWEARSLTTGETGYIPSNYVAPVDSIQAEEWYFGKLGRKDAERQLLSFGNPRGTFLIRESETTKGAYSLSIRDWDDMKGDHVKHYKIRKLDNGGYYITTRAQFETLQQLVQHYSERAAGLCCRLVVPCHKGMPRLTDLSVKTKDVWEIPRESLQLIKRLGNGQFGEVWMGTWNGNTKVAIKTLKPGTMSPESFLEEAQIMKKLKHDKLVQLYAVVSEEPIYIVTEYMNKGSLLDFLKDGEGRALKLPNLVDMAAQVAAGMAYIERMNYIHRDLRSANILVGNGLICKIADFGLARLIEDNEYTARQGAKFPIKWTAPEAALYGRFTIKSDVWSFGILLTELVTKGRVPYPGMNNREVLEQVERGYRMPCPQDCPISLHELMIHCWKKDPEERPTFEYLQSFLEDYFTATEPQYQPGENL

[9] = DRUGMATRIX: Calcium Channel Type L, Benzothiazepine radioligand binding (ligand: [3H] Diltiazem); assay type: cell membranes, Rattus norvegicus, Wistar, Brain, Membrane; details: Not Active = under 50% inhibition at 10 µM
[10] = target: Voltage-gated inwardly rectifying potassium channel KCNH2 (Homo sapiens, UniProt Q12809); details: hek293; further: in other assays of this panel Not Active means under 50% inhibition at 10 µM
Sequence of Voltage-gated inwardly rectifying potassium channel KCNH2 (Q12809 whole entry): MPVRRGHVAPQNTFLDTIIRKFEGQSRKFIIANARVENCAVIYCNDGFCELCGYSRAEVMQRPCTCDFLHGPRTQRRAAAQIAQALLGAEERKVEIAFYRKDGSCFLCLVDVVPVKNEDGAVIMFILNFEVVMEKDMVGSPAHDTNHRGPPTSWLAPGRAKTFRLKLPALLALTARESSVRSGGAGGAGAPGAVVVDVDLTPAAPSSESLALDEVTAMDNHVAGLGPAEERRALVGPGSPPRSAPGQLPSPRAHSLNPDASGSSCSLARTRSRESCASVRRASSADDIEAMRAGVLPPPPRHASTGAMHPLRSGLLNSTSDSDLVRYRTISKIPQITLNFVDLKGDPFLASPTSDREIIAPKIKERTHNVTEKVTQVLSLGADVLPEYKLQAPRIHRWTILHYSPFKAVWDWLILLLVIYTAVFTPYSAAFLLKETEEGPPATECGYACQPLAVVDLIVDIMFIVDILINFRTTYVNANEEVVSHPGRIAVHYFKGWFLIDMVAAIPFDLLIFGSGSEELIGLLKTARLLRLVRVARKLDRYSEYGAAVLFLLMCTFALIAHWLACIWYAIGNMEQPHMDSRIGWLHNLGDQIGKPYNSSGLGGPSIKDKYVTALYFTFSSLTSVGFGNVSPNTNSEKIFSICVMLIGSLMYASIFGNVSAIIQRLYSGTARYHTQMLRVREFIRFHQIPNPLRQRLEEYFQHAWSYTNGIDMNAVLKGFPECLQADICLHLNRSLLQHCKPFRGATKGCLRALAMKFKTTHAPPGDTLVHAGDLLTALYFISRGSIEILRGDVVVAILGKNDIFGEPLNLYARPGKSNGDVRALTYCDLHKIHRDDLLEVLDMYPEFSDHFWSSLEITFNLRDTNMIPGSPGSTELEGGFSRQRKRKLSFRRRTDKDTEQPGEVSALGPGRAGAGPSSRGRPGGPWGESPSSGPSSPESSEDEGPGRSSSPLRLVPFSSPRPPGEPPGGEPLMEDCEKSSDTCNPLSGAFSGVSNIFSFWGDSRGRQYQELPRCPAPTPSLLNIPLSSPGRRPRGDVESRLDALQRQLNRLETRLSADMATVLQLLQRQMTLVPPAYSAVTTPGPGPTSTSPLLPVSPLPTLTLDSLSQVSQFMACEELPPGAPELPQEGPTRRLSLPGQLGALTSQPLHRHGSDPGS

[11] = DRUGMATRIX: Glutamate, NMDA, Agonism radioligand binding (ligand: [3H] CGP-39653); assay type: cell membranes, Rattus norvegicus, Wistar, Cerebral cortex, Membrane; details: Not Active = under 50% inhibition at 10 µM
[12] = target: Aldo-keto reductase family 1 member B1 (Rattus norvegicus, UniProt P07943); assay type: tissue-based, Lens of camera-type eye

Structure (SMILES)	IC50 [1]	Ki [1]	IC50 [2]	IC50 [3]	IC50 [4]	IC50 (Acetylcholinesterase)	IC50 [5]	Ki [5]	IC50 (Cytochrome P450 3A4)	Ki (Cytochrome P450 3A4)	IC50 [6]	IC50 [7]	IC50 [8]	IC50 [9]	Ki [9]	IC50 [10]	Ki [10]	IC50 [11]	Ki [11]	IC50 [12]	other results
CC1(C)S[C@@H]2[C@H](NC(=O)[C@H](NC(=O)N3CCNC3=O)c3ccccc3)C(=O)N2[C@H]1C(=O)O [AZLOCILLIN]	Not Active	Not Active	Not Active	Not Active	Not Active	Not Active	Not Active	Not Active	Not Active	Not Active	Not Active	Not Active	Not Active	Not Active	Not Active	Not Active	Not Active	Not Active	Not Active	Not Active	IC50 (Substance-K receptor; cho): Not Active
CC[C@H](C)[C@H](N)C1=N[C@H](C(=O)N[C@@H](CC(C)C)C(=O)N[C@H](CCC(=O)O)C(=O)N[C@H](C(=O)N[C@H]2CCCCNC(=O)[C@H](CC(N)=O)NC(=O)[C@@H](CC(=O)O)NC(=O)[C@H](Cc3cnc[nH]3)NC(=O)[C@@H](Cc3ccccc3)NC(=O)[C@H]([C@@H](C)CC)NC(=O)[C@@H](CCCN)NC2=O)[C@@H](C)CC)CS1 [BACITRACIN] ({Ileψ(thiazoline)Cys}-L[dE]IK[dOrn]I[dF]H[dD]N; lactam 4-C)	Not Active	Not Active	Not Active	Not Active	Not Active	Not Active	Not Active	Not Active	Not Active	Not Active	Not Active	Not Active	Not Active	Not Active	Not Active	Not Active	Not Active	Not Active	Not Active	Not Active	IC50 (Substance-K receptor; cho): Not Active
CCOC(=O)c1ccc(N)cc1 [BENZOCAINE]	Not Active	Not Active	Not Active	Not Active	Not Active	Not Active	Not Active	Not Active	Not Active	Not Active	Not Active	Not Active	Not Active	Not Active	Not Active	Not Active	Not Active	Not Active	Not Active	Not Active	IC50 (Substance-K receptor; cho): Not Active
OCc1ccccc1 [BENZYL ALCOHOL]	Not Active	Not Active	Not Active	Not Active	Not Active	Not Active	Not Active	Not Active	Not Active	Not Active	Not Active	Not Active	Not Active	Not Active	Not Active	Not Active	Not Active	Not Active	Not Active	Not Active	IC50 (Substance-K receptor; cho): Not Active
CC(C)(Oc1ccc(CCNC(=O)c2ccc(Cl)cc2)cc1)C(=O)O [BEZAFIBRATE]	Not Active	Not Active	Not Active	Not Active	Not Active	Not Active	Not Active	Not Active	Not Active	Not Active	Not Active	Not Active	Not Active	Not Active	Not Active	Not Active	Not Active	Not Active	Not Active	Not Active	IC50 (Substance-K receptor; cho): Not Active
CCCC[C@@H](CC)COC(=O)c1ccccc1C(=O)OC[C@@H](CC)CCCC [BIS(2-ETHYLHEXYL)PHTHALATE]	Not Active	Not Active	Not Active	Not Active	Not Active	Not Active	Not Active	Not Active	Not Active	Not Active	Not Active	Not Active	Not Active	Not Active	Not Active	Not Active	Not Active	Not Active	Not Active	Not Active	IC50 (Substance-K receptor; cho): Not Active
Oc1c(Cl)cc(Cl)cc1Sc1cc(Cl)cc(Cl)c1O [BITHIONOL]	Not Active	Not Active	Not Active	–	Not Active	Not Active	Not Active	Not Active	Not Active	Not Active	Not Active	Not Active	Not Active	Not Active	Not Active	Not Active	Not Active	Not Active	Not Active	Not Active	IC50 ([3]; read-out: IC50): 0.385 µM; IC50 (Substance-K receptor; read-out: IC50): 4.66 µM; Ki (Substance-K receptor; read-out: Ki): 1.55 µM
Brc1ccccc1 [BROMOBENZENE]	Not Active	Not Active	Not Active	Not Active	Not Active	Not Active	Not Active	Not Active	Not Active	Not Active	Not Active	Not Active	Not Active	Not Active	Not Active	Not Active	Not Active	Not Active	Not Active	Not Active	IC50 (Substance-K receptor; cho): Not Active
